# Tests used:
# NR3B2 (ERRβ) = conditions: ref Supplementary Table 1, cited from earlier work
# NR2B1 (RXRα) = target: T1, NR2B1 (RXRα) (Homo sapiens, UniProt P19793); assay: Gal4 hybrid reporter gene assay RXRα; type: cell-based; conditions: n=3
# T1 construct: expressed in transfected cells; host or cells: HEK293T
# Description: (§1) Reference ligands are listed in the methods section.
# (§2) Five hours after transfection, the cells were incubated with the NR3 CG compound candidates at the recommended concentrations by changing the medium to Opti-MEM supplemented with penicillin (100 µ/mL) and streptomycin (100 µg/mL) additionally containing 0.1% DMSO and the respective test compound or 0.1% DMSO alone as untreated control. Firefly (reporter) and renilla (control) luminescence were measured after 14–16 h incubation using the Dual-Glo® Luciferase Assay System (Promega, Fitchburg, Wisconsin, USA; #E2980) according to manufacturer’s protocol on a Tecan Spark® 10M multimode microplate reader (Tecan Group AG, Männedorf, Switzerland). To obtain relative light units (RLU) firefly luminescence was divided by renilla luminescence and multiplied by 1000. Fold activation was obtained by dividing the mean RLU of a test sample by the mean RLU of the DMSO (0.1%) control. Experiments were performed in singlets in at least three biologically independent repeats.
# (§3) Supplementary Figure 1. […] Compounds are labeled according
# (§4) Supplementary Figure 2. […] Compounds are
# (§5) representing the NR1, NR2, NR4 and NR5 families.
# (§6) scanning fluorimetry (DSF).
# (§7) a concentration of 20 µM.
# NR1B1 (RARα) = target: T2, NR1B1 (RARα) (Homo sapiens, UniProt P10276); assay: Gal4 hybrid reporter gene assay RARα; type: cell-based; parameters: Activity on NR targets outside NR3 family [mean log10(fold reporter gene activity)] NR1B1 (RARα): concentration or dose not given beside the values
# T2 construct: expressed in transfected cells; host or cells: HEK293T
# Description: as §1, §2, §3, §4, §5, §6, §7
# HEK293T cells = assay: Evaluation of cytotoxicity (overall: growth-rate, metabolic activity, apoptosis, necrosis); type: cell-based; conditions: 24 h; for effects on growth-rate, metabolic activity and necrosis: HEK293T, budesonide (3 µM), others at tested concentration
# Description: The selection of 40 CG candidates was acquired from commercial vendors (purity ≥95%) and applied to initial toxicity screening. Cytotoxicity was determined in HEK293T cells considering growth-rate, metabolic activity as well as apoptosis and/or necrosis induction to evaluate suitability of the compounds for CG application in cellular settings (Fig. 3a–d, Supplementary Fig. 1, Supplementary Data 1). The candidates were generally well tolerated at concentrations >>EC50/IC50 that we recommend for CG application with only four compounds showing mild toxic effects. […] In terms of cytotoxicity, all candidates thus appeared suitable for inclusion in an NR3 CG set.
# NR2A2 (HNF4α) = target: T3, NR2A2 (HNF4α) (Homo sapiens, UniProt P41235); assay: Gal4 hybrid reporter gene assay HNF4α; type: cell-based; conditions: n=3
# T3 construct: expressed in transfected cells; host or cells: HEK293T
# Description: as §1
# (§8) HEK293T cells (ATCC, Manassas, Virgina, USA; #CRL-3216) were cultured to a maximal confluence of 70–80% in DMEM, high glucose, supplemented with 10% FCS, sodium pyruvate (1 mM), penicillin (100 U/mL), and streptomycin (100 μg/mL) at 37 °C and 5% CO2 (v/v), and seeded in clear 96-well plates (4 × 10^4 cells per well). After 20–24 h, medium was changed to Opti-MEM without supplements and the cells were transiently transfected using Lipofectamine™ LTX/Plus™ Reagents (Invitrogen, Carlsbad, California, USA; #15338100) according to the manufacturer’s protocol with pFR-Luc (reporter gene; Stratagene, Agilent Technologies, Santa Clara, California, USA; #219050), pRL-SV40 (control gene for normalization of transfection efficiency and cell growth; Promega, Fitchburg, Wisconsin, USA; #E2231) and one pFA-CMV-hNR-LBD clone coding for the hinge region and ligand binding domain (LBD) of the human NR of interest. […] Firefly (reporter) and renilla (control) luminescence were measured after 14–16 h incubation using the Dual-Glo® Luciferase Assay System (Promega, Fitchburg, Wisconsin, USA; #E2980) according to manufacturer’s protocol on a Tecan Spark® 10M multimode microplate reader (Tecan Group AG, Männedorf, Switzerland). To obtain relative light units (RLU) firefly luminescence was divided by renilla luminescence and multiplied by 1000. […]
# NR1C3 (PPARγ) = target: T4, NR1C3 (PPARγ) (Homo sapiens, UniProt P37231); assay: Gal4 hybrid reporter gene assay PPARγ; type: cell-based; conditions: n=3
# T4 construct: expressed in transfected cells; host or cells: HEK293T
# Description: as §1, §8
# NR3C1 (GR) = conditions: cited from earlier work
# NR3C4 (AR) = conditions: cited from earlier work
# NR3C3 (PR) = conditions: cited from earlier work; for IC50: (lit.), ref Supplementary Table 1, read-out: Potency [nM] IC50, NR3C3 (PR)
# T3 sequence (P41235 147-377 limits assumed): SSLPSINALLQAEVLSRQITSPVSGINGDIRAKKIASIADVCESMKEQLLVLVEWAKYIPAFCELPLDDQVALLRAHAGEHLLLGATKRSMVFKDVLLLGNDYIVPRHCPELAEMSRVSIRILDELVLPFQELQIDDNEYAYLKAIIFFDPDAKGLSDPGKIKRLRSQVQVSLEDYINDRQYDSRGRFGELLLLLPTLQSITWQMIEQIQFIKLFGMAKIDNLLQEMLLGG
# T2 sequence (P10276 183-417 limits assumed): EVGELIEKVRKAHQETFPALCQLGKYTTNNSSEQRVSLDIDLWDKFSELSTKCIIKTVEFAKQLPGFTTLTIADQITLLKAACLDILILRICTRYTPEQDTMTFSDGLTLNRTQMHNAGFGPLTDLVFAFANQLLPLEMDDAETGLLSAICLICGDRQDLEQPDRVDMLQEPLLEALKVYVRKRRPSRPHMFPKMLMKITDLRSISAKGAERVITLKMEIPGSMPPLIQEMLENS
# T4 sequence (P37231 238-503 limits assumed): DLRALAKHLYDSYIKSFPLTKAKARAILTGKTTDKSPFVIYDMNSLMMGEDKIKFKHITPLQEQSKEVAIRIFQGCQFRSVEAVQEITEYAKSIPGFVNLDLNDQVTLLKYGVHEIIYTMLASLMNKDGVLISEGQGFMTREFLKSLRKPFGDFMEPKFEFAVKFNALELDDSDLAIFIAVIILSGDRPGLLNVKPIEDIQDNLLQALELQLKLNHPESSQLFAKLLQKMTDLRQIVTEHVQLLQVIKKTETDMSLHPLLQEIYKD
# T1 sequence (P19793 227-458 limits assumed): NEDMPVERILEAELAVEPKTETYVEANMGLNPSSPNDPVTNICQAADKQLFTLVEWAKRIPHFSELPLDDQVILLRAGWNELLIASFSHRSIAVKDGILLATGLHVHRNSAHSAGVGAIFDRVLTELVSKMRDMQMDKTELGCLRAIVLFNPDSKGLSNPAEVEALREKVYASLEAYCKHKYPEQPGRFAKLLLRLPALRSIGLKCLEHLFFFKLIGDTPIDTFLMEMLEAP
structure (smiles),measurement,setting,value
CC/C(=C(\c1ccc(O)cc1)c1ccc(OCCN(C)C)cc1)c1ccccc1 [(Z)-4-Hydroxytamoxifen],IC50,"NR3B2 (ERRβ); (lit.), read-out: Potency [nM] IC50, NR3B2 (ERRβ)",650 nM
CC/C(=C(/c1ccc(/C=C/C(=O)O)cc1)c1ccc2[nH]ncc2c1)c1ccc(F)cc1Cl [ARN810],Activity on NR2B1 (RXRα),NR2B1 (RXRα); 1 µM,-0.29 mean log10(fold reporter gene activity)
same,Activity on NR1B1 (RARα),"NR1B1 (RARα); 1 µM, n=3",-0.97 mean log10(fold reporter gene activity)
C[C@@H]1Cc2c([nH]c3ccccc23)[C@@H](c2c(F)cc(/C=C/C(=O)O)cc2F)N1CC(C)(C)F [AZD9496],Activity on NR targets outside NR3 family [mean log10(fold reporter gene activity)] NR1B1 (RARα),NR1B1 (RARα),-0.43 log10(fold reporter gene activity)
same,"effects on growth-rate, metabolic activity and necrosis",HEK293T cells,without relevant effects
COc1ccc(-c2coc3cc(O)cc(O)c3c2=O)cc1 [Biochanin A],Activity on NR2B1 (RXRα),NR2B1 (RXRα); 10 µM,-0.68 mean log10(fold reporter gene activity)
same,Activity on NR2A2 (HNF4α),NR2A2 (HNF4α); 10 µM,0.38 mean log10(fold reporter gene activity)
same,Activity on NR1C3 (PPARγ),NR1C3 (PPARγ); 10 µM,-0.56 mean log10(fold reporter gene activity)
CCCC1O[C@@H]2C[C@H]3[C@@H]4CCC5=CC(=O)C=C[C@]5(C)[C@H]4[C@@H](O)C[C@]3(C)[C@]2(C(=O)CO)O1 (some centres unmarked) [Budesonide],"effects on growth-rate, metabolic activity and necrosis",HEK293T cells,without relevant effects
CCN(CC)c1ccc(/C=N/NC(=O)c2ccc(O)cc2)cc1 [DY131],"rel. activity from literature, NR3B2 (ERRβ): fold activation",NR3B2 (ERRβ),2 fold
same,Activity on NR targets outside NR3 family [mean log10(fold reporter gene activity)] NR2A2 (HNF4α),"NR2A2 (HNF4α); 3 µM, vs. DMSO ctrl",0.29 log10(fold reporter gene activity)
CC/C(=C(/CC)c1ccc(O)cc1)c1ccc(O)cc1 [Diethylstilbestrol],Cytotoxicity in HEK293T cells,HEK293T cells; 0.3 µM,non-toxic
Cc1ccc2c(NC[C@](O)(CC(C)(C)c3cc(F)cc4c3OCC4)C(F)(F)F)cccc2n1 [Mapracorat],EC50,"NR3C1 (GR); (lit.), ref Supplementary Table 1, read-out: Potency [nM] EC50, NR3C1 (GR)",1.6 ± 0.3 nM
same,"rel. activity from literature, NR3C1 (GR): % transrepression",NR3C1 (GR); transrepression,89 ± 4%
CC#C[C@]1(O)CC[C@H]2[C@@H]3CCC4=CC(=O)CCC4=C3[C@@H](c3ccc(N(C)C)cc3)C[C@@]21C [Mifepristone],"rel. activity from literature, NR3C4 (AR): % rem. act. of DHT",NR3C4 (AR),25 ± 2%
same,IC50,"NR3C4 (AR); read-out: Potency [nM] IC50, NR3C4 (AR), (lit.), ref Supplementary Table 1",5 ± 2 nM
same,IC50,"NR3C1 (GR); (lit.), ref Supplementary Table 1, read-out: Potency [nM] IC50, NR3C1 (GR)",0.8 ± 0.1 nM
same,"rel. activity from literature, NR3C1 (GR): % rem. act. of DXM",NR3C1 (GR); rem. act. of DXM (dexamethasone),5 ± 1%
COc1cc(/C=C(\C#N)C(=O)Nc2nnc(C(F)(F)F)s2)ccc1OCc1ccc(C(F)(F)F)cc1C(F)(F)F [XCT790],Activity on NR targets outside NR3 family [mean log10(fold reporter gene activity)] NR1C3 (PPARγ),"NR1C3 (PPARγ); 1 µM, vs. DMSO ctrl",0.75 log10(fold reporter gene activity)
C/C=C1\C(=O)C[C@H]2[C@@H]3CCC4=CC(=O)CC[C@]4(C)[C@H]3CC[C@]12C [Z-Guggulsterone],EC50,"NR3C4 (AR); read-out: Potency [nM] EC50, NR3C4 (AR), (lit.), ref Supplementary Table 1",660 ± 240 nM
same,IC50,NR3C3 (PR),740 ± 220 nM

# From article PMC11790914, “Chemogenomics for steroid hormone receptors (NR3)” (Communications Chemistry, 2025)
